The text below walks through data of PMC9068900, “Pharmacology of Kappa Opioid Receptors: Novel Assays and Ligands” (Frontiers in Pharmacology, 2022).

Assay [1] concerns the target T1, human kappa opioid receptor (Homo sapiens, UniProt P41145). Put plainly: biochemical. It is filed as biochemical. The arrangement: 13-mer linker peptide […]; expressed in transfected cells; enriched plasma membranes used.
For assay [2], the target named is T1, human kappa opioid receptor. Put plainly: Dynamic mass redistribution (DMR) label-free assay in CHO cells. It is filed as cell-based. The arrangement: expressed in transfected cells. As to the method:
DMR experiments were conducted as previously described ([Malfacini et al., 2018]). Chinese Hamster Ovary (CHO) cells stably expressing the human kappa receptor were kindly provided by L Toll (Torrey Pines Institute for Molecular Studies, Port St. Lucie, United States). Cells were cultured in Dulbecco’s Modified Eagle Medium: Nutrient Mixture F-12 (DMEM/F12) supplemented with 10% (v/v) Fetal Calf Serum (FCS), 100 U/ml penicillin, 100 μg/ml streptomycin, 2 mM L-glutamine, 15 mM HEPES. The medium was supplemented with 400 μg/ml G418 to maintain expression. Cells were seeded at a density of 45,000 cells/well in 120 μL into fibronectin-coated EnspireTM-LC 96-wells plates and cultured for 20 h to form a confluent monolayer. On the day of the experiment, cells were washed twice and maintained with assay buffer: HBSS with 20 mM HEPES, 0.01% BSA fraction V; for 90 min before the experiment. DMR was monitored in real-time with a temporal resolution of 44 s throughout the assay. Experiments were performed at 37°C, using an EnSight Multimode Plate Reader (PerkinElmer). A 5 min baseline was first established, followed by adding compounds manually in a volume of 40 μL and recording compound-triggered DMR signal for 60 min. In antagonism experiments, ligands tested as antagonists were added 30 min before agonist administration. Maximum picometers (pm) modification (peak) were used to determine agonist response after baseline normalization.
The pharmacological terminology is consistent with the International Union of Basic and Clinical Pharmacology (IUPHAR) recommendations ([Neubig et al., 2003]). Concentration-response curves to agonists were fitted to the four-parameter logistic nonlinear regression model as follows: Effect=Basal+ Emax−Basal/1+10^ (LogEC50−Log[ligand]) × HillSlope
If unsurmountable antagonist behavior was detected, the pKB value was derived as follows: a double-reciprocal plot of equi-effective concentrations of agonist (A) in the absence (1/A) and presence (1/A’) of the antagonist (B) was constructed and pKB was derived from the equation pKB = log {(slope-1)/[B]} ([Kenakin, 2009]).

Assay [3] has the same target. Put plainly: Calcium mobilization in CHO cells co-expressing the kappa receptor and Gαqi5. Type of assay: cell-based. The arrangement: expressed in transfected cells. A general note: Calcium flux is commonly read through the fluorescence of an indicator in the cells.
For assay [4] the target is unchanged. Put plainly: BRET kappa-β-arrestin 2 interaction, SH-SY5Y whole cells. It is filed as cell-based. The arrangement: 13-mer linker peptide […]; expressed in transfected cells; enriched plasma membranes used. On the technique in general: In BRET a luciferase serves as donor, and the signal depends on an acceptor being close.
For assay [5], the target named is T2, human delta opioid receptor (Homo sapiens, UniProt P41143).
T2 construct: expressed in transfected cells
Put plainly: Calcium mobilization in CHO cells co-expressing the delta receptor and GαqG66Di5. Type of assay: cell-based.

Assay [6] deals with human kappa opioid receptor. Put plainly: Bias factor, G protein vs β-arrestin 2, from BRET data. As to the method: To quantify the differences in agonist efficacies for G protein and arrestin interactions, bias factors were calculated by choosing the endogenous kappa opioid ligand Dyn A as standard unbiased ligand. For this analysis, the Emax and EC50 of the agonist were derived using a 3-parameter logistic model with slope values equal to unity. […] Under such conditions, the relative ratio (Emax/EC50)lig/(Emax/EC50)Dyn A is equivalent to the relative (τ/K)lig/(τ/K)Dyn A ratio as defined by the operational model ([Black and Leff, 1983]; [Griffin et al., 2007]). Taking ratios of these values between G protein and arrestin can cancel the common K and yield the ratio of ligand intrinsic efficacy across the two transduction proteins. Thus, the following formula was used for calculating agonist bias factors in log10 units: bias factor= log[(Emax/EC50)lig/(Emax/EC50)Dyn A]G prot.−log[(Emax/EC50)lig/(Emax/EC50)Dyn A]β−arr.
The pharmacological terminology and computations related to biased agonism were consistent with IUPHAR recommendations ([Kolb et al., 2022]).

For a further assay, the target named is T3, human mu opioid receptor (Homo sapiens, UniProt P35372).
T3 construct: expressed in transfected cells
Put plainly: Calcium mobilization in CHO cells co-expressing the mu receptor and Gαqi5. Type of assay: cell-based.

In assay [7] the target is T1, human kappa opioid receptor. Put plainly: Summary over the assays used (calcium mobilization, DMR, BRET). Details: expressed in transfected cells. Type of assay: cell-based.
The subject of assay [8] is mice. The arrangement: method as in Gairin et al., 1988a. Particulars: intracerebroventricular, ref Gairin et al., 1988a; cited from earlier work.
Assay [9] relates to mice. The arrangement: method as in Gairin et al., 1988a. Particulars: intracerebroventricular, ref Gairin et al., 1988a; cited from earlier work. The source holds these as a separate data set.
Another assay concerns kappa opioid receptor. Details: method as in Arimitsu et al., 1977. Particulars: ref Arimitsu et al., 1977, cited from earlier work.

Marks after values point to notes of the source that are not given here.

T2 sequence (P41143 whole entry): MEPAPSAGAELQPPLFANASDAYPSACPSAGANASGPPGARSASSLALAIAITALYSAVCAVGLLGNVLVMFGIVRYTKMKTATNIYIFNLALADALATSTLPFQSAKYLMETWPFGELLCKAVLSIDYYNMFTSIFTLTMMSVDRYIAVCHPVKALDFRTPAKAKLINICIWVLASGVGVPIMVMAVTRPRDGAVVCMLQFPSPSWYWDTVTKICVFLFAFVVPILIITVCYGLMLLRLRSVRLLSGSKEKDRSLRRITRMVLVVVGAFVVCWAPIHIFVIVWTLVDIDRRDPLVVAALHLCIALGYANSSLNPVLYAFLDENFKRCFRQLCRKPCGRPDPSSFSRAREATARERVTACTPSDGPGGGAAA
T1 sequence (P41145 whole entry): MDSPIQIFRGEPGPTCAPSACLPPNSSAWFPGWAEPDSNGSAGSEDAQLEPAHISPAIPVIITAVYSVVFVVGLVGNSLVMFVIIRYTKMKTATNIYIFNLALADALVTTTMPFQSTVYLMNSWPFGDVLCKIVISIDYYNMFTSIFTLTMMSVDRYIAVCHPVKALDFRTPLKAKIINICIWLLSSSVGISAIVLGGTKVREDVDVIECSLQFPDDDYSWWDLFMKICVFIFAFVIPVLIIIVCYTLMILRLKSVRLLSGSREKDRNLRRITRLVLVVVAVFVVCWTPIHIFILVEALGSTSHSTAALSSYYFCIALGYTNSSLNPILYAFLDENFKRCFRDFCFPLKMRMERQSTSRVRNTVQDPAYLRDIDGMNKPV
T3 sequence (P35372 whole entry): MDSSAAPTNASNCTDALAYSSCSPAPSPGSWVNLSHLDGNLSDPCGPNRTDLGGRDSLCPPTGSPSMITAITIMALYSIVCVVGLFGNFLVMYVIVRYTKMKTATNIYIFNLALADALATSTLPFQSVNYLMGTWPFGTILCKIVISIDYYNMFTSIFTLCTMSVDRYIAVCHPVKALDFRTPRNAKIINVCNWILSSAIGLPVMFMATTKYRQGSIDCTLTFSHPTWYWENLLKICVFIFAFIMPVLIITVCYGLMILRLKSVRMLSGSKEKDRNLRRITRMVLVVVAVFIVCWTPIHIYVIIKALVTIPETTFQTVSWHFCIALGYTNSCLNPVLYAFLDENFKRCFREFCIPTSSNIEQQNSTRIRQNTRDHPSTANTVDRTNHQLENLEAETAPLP

For the compound `CC[C@H](C)[C@H](NC(=O)[C@H](CCCNC(=N)N)NC(=O)[C@H](CCCNC(=N)N)NC(=O)[C@H](CC(C)C)NC(=O)[C@H](Cc1ccccc1)NC(=O)CNC(=O)CNC(=O)[C@@H](N)Cc1ccc(O)cc1)C(=O)N[C@@H](CCCNC(=N)N)C(=O)N1CCC[C@@H]1C(=O)N[C@@H](CCCCN)C(N)=O` [[D-Pro^10], [D-Pro^10]Dyn(1-11)-NH2], in assay [1], the “BRET G Protein pEC50 (CL95%)” value is on record as 8.36 (6.54–10.19) and the “BRET G Protein α” value stood at 1.00. In addition, in assay [2], the “DMR Emax” value was 251 pm, the “DMR pEC50 (CL95%)” value is on record as 9.84 (9.31–10.37) and the “DMR α” value was determined as 1.07. For the same compound, in assay [3], the “Calcium Mobilization pEC50 (CL95%)” value is listed as 9.08 (8.93–9.23) and the “Calcium Mobilization α (intrinsic activity: maximal effect divided by that of Dyn A)” value is 1.00. Moreover, in assay [4], the “BRET β-Arrestin 2 pEC50 (CL95%)” value is 8.07 (7.66–8.47) and the “BRET β-Arrestin 2 α” value was 0.95.
Take `CC[C@H](C)[C@H](NC(=O)[C@H](CCCNC(=N)N)NC(=O)[C@H](CCCNC(=N)N)NC(=O)[C@H](CC(C)C)NC(=O)[C@H](Cc1ccccc1)NC(=O)CNC(=O)CNC(=O)[C@@H](N)Cc1ccc(O)cc1)C(=O)N[C@@H](CCCNC(=N)N)C(=O)N1CCC[C@H]1C(=O)N[C@@H](CCCCN)C(=O)N[C@@H](CC(C)C)C(=O)N[C@@H](CCCCN)C(=O)N[C@@H](Cc1c[nH]c2ccccc12)C(=O)N[C@@H](CC(=O)O)C(=O)N[C@@H](CC(N)=O)C(=O)N[C@@H](CCC(N)=O)C(=O)O` [Dyn A, dynorphin A]: in [5] (CHO cells, delta + GαqG66Di5), the Maximal effects is given as 171 % over the baseline. The “Bias factor (CL95%)” value in [6] is on record as 0.00.
For the compound `CCCCCCCCCCCCCCCC(=O)NCCCN1C(=O)CC(SC[C@H](NC(=O)[C@H](CCC(N)=O)NC(=O)[C@H](CC(N)=O)NC(=O)[C@H](CC(=O)O)NC(=O)[C@H](Cc2c[nH]c3ccccc23)NC(=O)[C@H](CCCCN)NC(=O)[C@H](CC(C)C)NC(=O)[C@H](CCCCN)NC(=O)[C@@H]2CCCN2C(=O)[C@H](CCCNC(=N)N)NC(=O)[C@@H](NC(=O)[C@H](CCCNC(=N)N)NC(=O)[C@H](CCCNC(=N)N)NC(=O)[C@H](CC(C)C)NC(=O)[C@H](Cc2ccccc2)NC(=O)CNC(=O)CNC(=O)[C@@H](N)Cc2ccc(O)cc2)[C@@H](C)CC)C(N)=O)C1=O` (some centres unmarked) [Dyn A-palmitic], at human mu opioid receptor (calcium mobilization, mu), the “Lower potency than dermorphin” value was “approximately 6 fold”. Further, the “Less potent than DPDPE” value in assay [5] (calcium mobilization, delta) was determined as 10 fold.
On to `CC[C@H](C)[C@H](NC(=O)[C@H](CCCNC(=N)N)NC(=O)[C@H](CCCNC(=N)N)NC(=O)[C@H](CC(C)C)NC(=O)[C@H](Cc1ccccc1)NC(=O)CNC(=O)CNC(=O)[C@@H](N)Cc1ccc(O)cc1)C(=O)N[C@@H](CCCNC(=N)N)C(=O)N1CCC[C@H]1C(=O)N[C@@H](CCCCN)C(=O)N[C@@H](CC(C)C)C(=O)N[C@@H](CCCCN)C(=O)N[C@@H](Cc1c[nH]c2ccccc12)C(=O)N[C@@H](CC(=O)O)C(=O)N[C@@H](CC(N)=O)C(=O)N[C@@H](CCC(N)=O)C(=O)N[C@@H](CSC1CC(=O)N(CCCC(=O)N2CCCN(C(=O)CCCN3C(=O)CC(SC[C@H](NC(=O)[C@H](CCC(N)=O)NC(=O)[C@H](CC(N)=O)NC(=O)[C@H](CC(=O)O)NC(=O)[C@H](Cc4c[nH]c5ccccc45)NC(=O)[C@H](CCCCN)NC(=O)[C@H](CC(C)C)NC(=O)[C@H](CCCCN)NC(=O)[C@@H]4CCCN4C(=O)[C@H](CCCNC(=N)N)NC(=O)[C@@H](NC(=O)[C@H](CCCNC(=N)N)NC(=O)[C@H](CCCNC(=N)N)NC(=O)[C@H](CC(C)C)NC(=O)[C@H](Cc4ccccc4)NC(=O)CNC(=O)CNC(=O)[C@@H](N)Cc4ccc(O)cc4)[C@@H](C)CC)C(N)=O)C3=O)CCN(C(=O)CCCN3C(=O)CC(SC[C@H](NC(=O)[C@H](CCC(N)=O)NC(=O)[C@H](CC(N)=O)NC(=O)[C@H](CC(=O)O)NC(=O)[C@H](Cc4c[nH]c5ccccc45)NC(=O)[C@H](CCCCN)NC(=O)[C@H](CC(C)C)NC(=O)[C@H](CCCCN)NC(=O)[C@@H]4CCCN4C(=O)[C@H](CCCNC(=N)N)NC(=O)[C@@H](NC(=O)[C@H](CCCNC(=N)N)NC(=O)[C@H](CCCNC(=N)N)NC(=O)[C@H](CC(C)C)NC(=O)[C@H](Cc4ccccc4)NC(=O)CNC(=O)CNC(=O)[C@@H](N)Cc4ccc(O)cc4)[C@@H](C)CC)C(N)=O)C3=O)CCCN(C(=O)CCCN3C(=O)CC(SC[C@H](NC(=O)[C@H](CCC(N)=O)NC(=O)[C@H](CC(N)=O)NC(=O)[C@H](CC(=O)O)NC(=O)[C@H](Cc4c[nH]c5ccccc45)NC(=O)[C@H](CCCCN)NC(=O)[C@H](CC(C)C)NC(=O)[C@H](CCCCN)NC(=O)[C@@H]4CCCN4C(=O)[C@H](CCCNC(=N)N)NC(=O)[C@@H](NC(=O)[C@H](CCCNC(=N)N)NC(=O)[C@H](CCCNC(=N)N)NC(=O)[C@H](CC(C)C)NC(=O)[C@H](Cc4ccccc4)NC(=O)CNC(=O)CNC(=O)[C@@H](N)Cc4ccc(O)cc4)[C@@H](C)CC)C(N)=O)C3=O)CC2)C1=O)C(N)=O` (some centres unmarked) [PWT2-Dyn A], for which the “Lower potency than dynorphin A” value in assay [7] was 3–10 fold. In addition, in assay [1], the “BRET G Protein α” value is “∼1.00” and the “Lower potency than Dyn A” value is on record as 3 fold. The compound also had an EC50 in [1] (BRET G Protein pEC50 (CL95%)) of 18.6 nM. Also, on human mu opioid receptor (CHO cells, mu + Gαqi5), the “Agonist activity (in words)” value is “inactive”. In assay [2], the “DMR α” value was 0.84 and the “Lower potency than Dyn A” value came to 4 fold. Further, in assay [3], the “Calcium Mobilization α (intrinsic activity: maximal effect divided by that of Dyn A)” value is given as “∼1.00” and the EC50 is 30.9 nM. Further, in assay [4], the “BRET β-Arrestin 2 α” value was “∼1.00”, a half-maximal response (EC50) required 219 nM and the “Lower potency than Dyn A” value turned out to be 3 fold. The Stimulatory effect in assay [5] (only at the highest concentration tested) is listed as 77 % over the baseline. Also, the “Bias factor (CL95%)” value in assay [6] is given as “∼0.18 ^c”.
On to [D-Pro^10]Dyn(1-11), for which, in the assay on mice [8], the “Activity against thermal stimulus (tail-flick)” value is on record as “did not show any activity”. For the same compound, in the assay with mice [9], the “Effect in acetic acid-induced writhing” value is “dose-dependent antinociceptive effect”. In the assay with kappa opioid receptor ([^3H]Bremazocine binding), the “Higher affinity to the kappa opioid receptor than Dyn A” value is 7 fold. For the same compound, in the assay on kappa opioid receptor, the “Selectivity over the delta opioid receptor” value is given as 233 fold and the “Selectivity over the mu opioid receptor” value is on record as 62 fold.
In the case of `C[C@@H](NC(=O)[C@@H](N)Cc1ccc(O)cc1)C(=O)N[C@@H](Cc1ccccc1)C(=O)NCC(=O)N[C@@H](Cc1ccc(O)cc1)C(=O)N1CCC[C@H]1C(=O)N[C@@H](CO)C(N)=O` [Dermorphin], the Maximal effects on human mu opioid receptor (CHO cells, mu + Gαqi5) turned out to be 294 % over the baseline.
Consider `Nc1nc2c(ncn2[C@@H]2O[C@H](COP(=O)(O)OP(=O)(O)O)[C@@H](O)[C@H]2O)c(=O)[nH]1` [GDP, guanosine diphosphate], for which the “pEC50 (CL95%)” value is reported as 8.20 in assay [1] (5 min after compound addition) and 8.21 in assay [1] (30 min after compound addition).

In general, EC50 refers to the concentration that produces a half-maximal response.
